Test results: PubChem BioAssay AID330 (DTP/NCI, 2004)
Values joined by “and” are separate entries in the source; they are usually repeats but may differ in a detail not shown here. Equal values may be shown once. Inconclusive results and toxic doses are left out. How the source made its calls: active means survival T/C of 150% or more; inactive means T/C below 125% in these data.

Test system: P388 leukemia ip, CD2F1 mice, survival T/C
Test: NCI In Vivo Anticancer Drug Screen. Data for tumor model P388 Leukemia (intraperitoneal) in CD2F1 (CDF1) mice
Conditions: endpoint: median survival time, higher = longer survival
How it was run: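 Mice carrying the transplanted tumor received test compound or vehicle. Survival was recorded in each group, and the value is the treated-group measurement divided by that of the vehicle-treated control group.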

[1] = dose: 50.0 mg/kg/injection, schedule: Q01DX009 (ip), vehicle: Klucel (hydroxypropylcellulose) (HPC)
[2] = dose: 100.0 mg/kg/injection, schedule: Q01DX009 (ip), vehicle: Klucel (hydroxypropylcellulose) (HPC)
[3] = dose: 200.0 mg/kg/injection, schedule: Q01DX009 (ip), vehicle: Klucel (hydroxypropylcellulose) (HPC)
[4] = dose: 50.0 mg/kg/injection, schedule: Q01DX005 (ip), vehicle: saline with Tween-80
[5] = dose: 100.0 mg/kg/injection, schedule: Q01DX005 (ip), vehicle: saline with Tween-80
[6] = dose: 200.0 mg/kg/injection, schedule: Q01DX005 (ip), vehicle: saline with Tween-80
[7] = dose: 100.0 mg/kg/injection, schedule: Q04DX003 (ip), vehicle: saline with Tween-80
[8] = dose: 200.0 mg/kg/injection, schedule: Q04DX003 (ip), vehicle: saline with Tween-80
[9] = dose: 400.0 mg/kg/injection, schedule: Q04DX003 (ip), vehicle: saline with Tween-80

Measured: T/C

COc1ccc(C2(c3ccc(OC)cc3)N=C(N(C)C)NC2=O)cc1
inactive: dose: 50.0 mg/kg/injection, schedule: Q04DX002 (ip), vehicle: saline with Tween-80 102 % of control | dose: 100.0 mg/kg/injection, schedule: Q04DX002 (ip), vehicle: saline with Tween-80 97 % of control | dose: 200.0 mg/kg/injection, schedule: Q04DX002 (ip), vehicle: saline with Tween-80 94 % of control

Nc1c[nH]c2ccccc2c1=O
inactive: [1] 104 % of control | [2] 101 % of control | [3] 100 % of control

N=c1c2ccccc2c2ccccc2n1O
inactive: dose: 50.0 mg/kg/injection, schedule: Q01DX001 (ip), vehicle: saline sonified 110 % of control | dose: 100.0 mg/kg/injection, schedule: Q01DX001 (ip), vehicle: saline sonified 90 % of control | dose: 200.0 mg/kg/injection, schedule: Q01DX001 (ip), vehicle: saline sonified 100 % of control

O=[N+]([O-])c1ccc(C(S(=O)(=O)Cc2ccccc2)S(=O)(=O)Cc2ccccc2)cc1
inactive: [1] 93 % of control | [2] 89 % of control | [3] 90 % of control

COc1cc(COC(=O)Nc2ccccc2F)cc(OC)c1OC
inactive: [4] 93 % of control | [5] 101 % of control | [6] 92 % of control

CN(C)C1CC2CCCCC2CC1OC(=O)c1ccc([N+](=O)[O-])cc1 (stereo not given)
inactive: [7] 101 % of control | [8] 110 % of control | [9] 101 % of control

CCOCCNc1ncnc2c1cnn2C
inactive: dose: 12.5 mg/kg/injection, schedule: Q04DX003 (ip), vehicle: saline 91 % of control | dose: 25.0 mg/kg/injection, schedule: Q04DX003 (ip), vehicle: saline 88 % of control | dose: 50.0 mg/kg/injection, schedule: Q04DX003 (ip), vehicle: saline 93 % of control | dose: 100.0 mg/kg/injection, schedule: Q04DX003 (ip), vehicle: saline 95 % of control

NC(=NCCCCCCN=C(N)[N+](=O)[O-])N[N+](=O)[O-]
inactive: dose: 6.25 mg/kg/injection, schedule: Q01DX009 (ip), vehicle: Klucel (hydroxypropylcellulose) (HPC) 113 % of control and 123 % of control | dose: 12.5 mg/kg/injection, schedule: Q01DX009 (ip), vehicle: Klucel (hydroxypropylcellulose) (HPC) 105 % of control and 106 % of control | dose: 25.0 mg/kg/injection, schedule: Q01DX009 (ip), vehicle: Klucel (hydroxypropylcellulose) (HPC) 99 % of control and 106 % of control

ClCC#CCOc1c(Cl)cccc1Cl
inactive: dose: 50.0 mg/kg/injection, schedule: Q01DX009 (ip), vehicle: saline 86 % of control | dose: 100.0 mg/kg/injection, schedule: Q01DX009 (ip), vehicle: saline 92 % of control | dose: 200.0 mg/kg/injection, schedule: Q01DX009 (ip), vehicle: saline 98 % of control

COC1=CC(=O)C(CCC(C)=O)=CC1=O
inactive: dose: 3.75 mg/kg/injection, schedule: Q01DX005 (ip), vehicle: Klucel (hydroxypropylcellulose) (HPC) 99 % of control | dose: 7.5 mg/kg/injection, schedule: Q01DX005 (ip), vehicle: Klucel (hydroxypropylcellulose) (HPC) 98 % of control | dose: 15.0 mg/kg/injection, schedule: Q01DX005 (ip), vehicle: Klucel (hydroxypropylcellulose) (HPC) 94 % of control

N#CC1(OC2OC(CO)C(O)C(O)C2O)C=CC(OS(=O)(=O)O)C1 (stereo not given)
inactive: dose: 25.0 mg/kg/injection, schedule: Q01DX005 (ip), vehicle: saline 103 % of control | dose: 50.0 mg/kg/injection, schedule: Q01DX005 (ip), vehicle: saline 100 % of control | dose: 100.0 mg/kg/injection, schedule: Q01DX005 (ip), vehicle: saline 116 % of control | dose: 200.0 mg/kg/injection, schedule: Q01DX005 (ip), vehicle: saline 97 % of control

CC(=O)OC(C)(C)c1ccccc1[S+]1OC(C)(C)c2ccccc21 (stereo not given)
inactive: dose: 25.0 mg/kg/injection, schedule: Q01DX001 (ip), vehicle: other 101 % of control | dose: 50.0 mg/kg/injection, schedule: Q01DX001 (ip), vehicle: other 104 % of control | dose: 100.0 mg/kg/injection, schedule: Q01DX001 (ip), vehicle: other 107 % of control

c1ccc(N2C3Sc4ncccc4C2Sc2ncccc23)cc1
inactive: [1] 104 % of control | [2] 94 % of control | [3] 96 % of control

COC(=O)C1=C(C(=O)OC)C2C=CC1C1C(Cl)C(Cl)C21 (stereo not given)
inactive: dose: 7.5 mg/kg/injection, schedule: Q01DX009 (ip), vehicle: saline with Tween-80 103 % of control | dose: 15.0 mg/kg/injection, schedule: Q01DX009 (ip), vehicle: saline with Tween-80 112 % of control | dose: 30.0 mg/kg/injection, schedule: Q01DX009 (ip), vehicle: saline with Tween-80 115 % of control | dose: 100.0 mg/kg/injection, schedule: Q01DX009 (ip), vehicle: saline with Tween-80 95 % of control | dose: 200.0 mg/kg/injection, schedule: Q01DX009 (ip), vehicle: saline with Tween-80 90 % of control

CN(C)CC/C(Br)=C1/c2ccccc2Sc2ccc(Cl)cc21
inactive: dose: 50.0 mg/kg/injection, schedule: Q01DX005 (ip), vehicle: Klucel (hydroxypropylcellulose) (HPC) 111 % of control | dose: 100.0 mg/kg/injection, schedule: Q01DX005 (ip), vehicle: Klucel (hydroxypropylcellulose) (HPC) 98 % of control | dose: 200.0 mg/kg/injection, schedule: Q01DX005 (ip), vehicle: Klucel (hydroxypropylcellulose) (HPC) 93 % of control

Cc1ccc(NS(=O)(=O)c2ccc3ccccc3c2)c(C)c1
inactive: [7] 100 % of control | [8] 100 % of control | [9] 104 % of control

COc1ccc(OC(=O)Nc2cc(Cl)c(OC)cc2OC)c(Cl)c1
inactive: dose: 50.0 mg/kg/injection, schedule: Q01DX009 (ip), vehicle: saline + alcohol 98 % of control | dose: 100.0 mg/kg/injection, schedule: Q01DX009 (ip), vehicle: saline + alcohol 105 % of control | dose: 200.0 mg/kg/injection, schedule: Q01DX009 (ip), vehicle: saline + alcohol 96 % of control

CSC(SC)=C1C(=O)NC(Cc2ccccc2)C1=O (stereo not given)
inactive: dose: 6.25 mg/kg/injection, schedule: Q01DX005 (ip), vehicle: saline with Tween-80 104 % of control | dose: 12.5 mg/kg/injection, schedule: Q01DX005 (ip), vehicle: saline with Tween-80 112 % of control | dose: 25.0 mg/kg/injection, schedule: Q01DX005 (ip), vehicle: saline with Tween-80 119 % of control

O=C(Nc1ccccc1-c1ccccc1)c1cccc2ccccc12
inactive: [4] 106 % of control | [5] 94 % of control | [6] 90 % of control

CCCCC(CC)CCC(C)O (stereo not given)
inactive: dose: 50.0 mg/kg/injection, schedule: Q04DX003 (ip), vehicle: saline with Tween-80 100 % of control | [7] 109 % of control

CN=C(NC)c1ccc(NC(=O)c2ccc(C(=O)Nc3ccc(C(=NC)NC)cc3)c([N+](=O)[O-])c2)cc1
inactive: dose: 1.56 mg/kg/injection, schedule: Q01DX005 (ip), vehicle: Klucel (hydroxypropylcellulose) (HPC) 106 % of control | dose: 3.12 mg/kg/injection, schedule: Q01DX005 (ip), vehicle: Klucel (hydroxypropylcellulose) (HPC) 118 % of control
